Reference: ChEMBL document CHEMBL2010722, “Structure-activity relationship study of beta-carboline derivatives as haspin kinase inhibitors” (Bioorg Med Chem Lett, 2012)

Columns and labels:
[1] = tested on: Liver; experiment: Half life in mouse liver microsome at 3 uM; assay type: ADME; details: microsomes
[2] = molecular target: Activated CDC42 kinase 1 (Homo sapiens) (UniProt Q07912); experiment: Inhibition of TNK2 at 10 uM
[3] = molecular target: Tyrosine-protein kinase Blk (Homo sapiens) (UniProt P51451); experiment: Inhibition of BLK at 10 uM
[4] = molecular target: Tyrosine-protein kinase CSK (Homo sapiens) (UniProt P41240); experiment: Inhibition of CSK at 10 uM
[5] = molecular target: EML4-ALK (Homo sapiens) (UniProt Q9UM73+Q9HC35); experiment: Inhibition of EML4-ALK at 10 uM; assay type: protein assay
[6] = molecular target: Ephrin type-B receptor 4 (Homo sapiens) (UniProt P54760); experiment: Inhibition of EPHB4 at 10 uM
[7] = molecular target: Focal adhesion kinase 1 (Homo sapiens) (UniProt Q05397); experiment: Inhibition of FAK at 10 uM
[8] = molecular target: Fibroblast growth factor receptor 1 (Homo sapiens) (UniProt P11362); experiment: Inhibition of FGFR1 at 10 uM
[9] = molecular target: Fibroblast growth factor receptor 2 (Homo sapiens) (UniProt P21802); experiment: Inhibition of FGFR2 at 10 uM
[10] = tested on: Fibroblast growth factor receptor 3 (Homo sapiens), P22607 [K650E]; experiment: Inhibition of FGFR3 K650E mutant at 10 uM
[11] = molecular target: Tyrosine-protein kinase Fgr (Homo sapiens) (UniProt P09769); experiment: Inhibition of FGR at 10 uM
[12] = molecular target: Tyrosine-protein kinase FRK (Homo sapiens) (UniProt P42685); experiment: Inhibition of FRK at 10 uM
[13] = molecular target: Tyrosine-protein kinase JAK2 (Homo sapiens) (UniProt O60674); experiment: Inhibition of JAK2 at 10 uM
[14] = molecular target: Tyrosine-protein kinase JAK3 (Homo sapiens) (UniProt P52333); experiment: Inhibition of JAK3 at 10 uM
[15] = molecular target: Hepatocyte growth factor receptor (Homo sapiens) (UniProt P08581); experiment: Inhibition of MET at 10 uM
[16] = tested on: Proto-oncogene tyrosine-protein kinase receptor Ret (Homo sapiens), P07949 [M918T]; experiment: Inhibition of RET M918T mutant at 10 uM
[17] = molecular target: Proto-oncogene tyrosine-protein kinase ROS (Homo sapiens) (UniProt P08922); experiment: Inhibition of ROS at 10 uM
[18] = molecular target: Tyrosine-protein kinase SYK (Homo sapiens) (UniProt P43405); experiment: Inhibition of SYK at 10 uM
[19] = molecular target: Non-receptor tyrosine-protein kinase TYK2 (Homo sapiens) (UniProt P29597); experiment: Inhibition of TYK2 at 10 uM
[20] = molecular target: AMP-activated protein kinase, AMPK (Homo sapiens) (UniProt P54646+O43741+P54619+Q9UGJ0+Q9Y478+Q13131+Q9UGI9); experiment: Inhibition of AMPKalpha2/beta1/gamma1 at 10 uM; assay type: protein-complex assay
[21] = molecular target: Aurora kinase C (Homo sapiens) (UniProt Q9UQB9); experiment: Inhibition of AurC at 10 uM
[22] = molecular target: Calcium/calmodulin-dependent protein kinase type 1 (Homo sapiens) (UniProt Q14012); experiment: Inhibition of CaMK1alpha at 10 uM
[23] = molecular target: CDC7/DBF4 (Cell division cycle 7-related protein kinase/Activator of S phase kinase) (Homo sapiens) (UniProt Q9UBU7+O00311); experiment: Inhibition of CDC7-Dbf4 at 10 uM; assay type: protein-complex assay
[24] = molecular target: Cyclin-dependent kinase 5/CDK5 activator 1 (Homo sapiens) (UniProt Q00535+Q15078); experiment: Inhibition of CDK5-p25 at 10 uM; assay type: protein-complex assay
[25] = molecular target: Cyclin-dependent kinase 7/ cyclin H (Homo sapiens) (UniProt P51946+P50613); experiment: Inhibition of CDK7-CycH-MAT1 at 10 uM; assay type: protein-complex assay
[26] = molecular target: Serine/threonine-protein kinase Chk2 (Homo sapiens) (UniProt O96017); experiment: Inhibition of CHK2 at 10 uM
[27] = molecular target: Casein kinase I isoform alpha (Homo sapiens) (UniProt P48729); experiment: Inhibition of CK1a at 10 uM
[28] = molecular target: Dual specificity protein kinase CLK2 (Homo sapiens) (UniProt P49760); experiment: Inhibition of CLK2 at 10 uM
[29] = molecular target: Death-associated protein kinase 1 (Homo sapiens) (UniProt P53355); experiment: Inhibition of DAPK1 at 10 uM
[30] = molecular target: Mitogen-activated protein kinase kinase kinase 12 (Homo sapiens) (UniProt Q12852); experiment: Inhibition of DLK at 10 uM
[31] = molecular target: Homeodomain-interacting protein kinase 3 (Homo sapiens) (UniProt Q9H422); experiment: Inhibition of HIPK3 at 10 uM
[32] = molecular target: Interleukin-1 receptor-associated kinase 1 (Homo sapiens) (UniProt P51617); experiment: Inhibition of IRAK1 at 10 uM
[33] = molecular target: LIM domain kinase 1 (Homo sapiens) (UniProt P53667); experiment: Inhibition of LIMK1 at 10 uM
[34] = molecular target: Serine/threonine-protein kinase 10 (Homo sapiens) (UniProt O94804); experiment: Inhibition of LOK at 10 uM
[35] = molecular target: Mitogen-activated protein kinase kinase kinase 3 (Homo sapiens) (UniProt Q99759); experiment: Inhibition of MAP3K3 at 10 uM
[36] = molecular target: Mitogen-activated protein kinase kinase kinase 9 (Homo sapiens) (UniProt P80192); experiment: Inhibition of MLK1 at 10 uM
[37] = molecular target: Serine/threonine-protein kinase 24 (Homo sapiens) (UniProt Q9Y6E0); experiment: Inhibition of MST3 at 10 uM
[38] = molecular target: Serine/threonine-protein kinase Nek9 (Homo sapiens) (UniProt Q8TD19); experiment: Inhibition of NEK9 at 10 uM
[39] = molecular target: Serine/threonine-protein kinase PAK 5 (Homo sapiens) (UniProt Q9P286); experiment: Inhibition of PAK5 (PAK7) at 10 uM
[40] = molecular target: cGMP-dependent protein kinase 1 (Homo sapiens) (UniProt Q13976); experiment: Inhibition of PRKG1 at 10 uM
[41] = molecular target: Serine/threonine-protein kinase pim-2 (Homo sapiens) (UniProt Q9P1W9); experiment: Inhibition of PIM2 at 10 uM
[42] = molecular target: cAMP-dependent protein kinase catalytic subunit beta (Homo sapiens) (UniProt P22694); experiment: Inhibition of PKACb (PRKACB) at 10 uM
[43] = molecular target: Protein kinase C delta type (Homo sapiens) (UniProt Q05655); experiment: Inhibition of PKCdelta at 10 uM
[44] = molecular target: Ribosomal protein S6 kinase alpha-3 (Homo sapiens) (UniProt P51812); experiment: Inhibition of RSK2 N-terminal at 10 uM
[45] = molecular target: SRSF protein kinase 2 (Homo sapiens) (UniProt P78362); experiment: Inhibition of SRPK2 at 10 uM
[46] = molecular target: Sphingosine kinase 2 (Homo sapiens) (UniProt Q9NRA0); experiment: Inhibition of SPHK2 at 10 uM

Chain of Serine/threonine-protein kinase pim-2 (Homo sapiens) (Q9P1W9 whole entry, looked up): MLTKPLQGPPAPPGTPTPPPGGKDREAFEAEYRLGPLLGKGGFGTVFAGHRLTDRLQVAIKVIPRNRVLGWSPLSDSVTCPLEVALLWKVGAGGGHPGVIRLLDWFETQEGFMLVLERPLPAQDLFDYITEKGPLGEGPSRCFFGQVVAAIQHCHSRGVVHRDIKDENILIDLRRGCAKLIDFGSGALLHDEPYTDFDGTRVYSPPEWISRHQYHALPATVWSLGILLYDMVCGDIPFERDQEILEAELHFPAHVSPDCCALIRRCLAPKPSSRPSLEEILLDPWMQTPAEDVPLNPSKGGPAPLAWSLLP
Chain of Ephrin type-B receptor 4 (Homo sapiens) (P54760 whole entry): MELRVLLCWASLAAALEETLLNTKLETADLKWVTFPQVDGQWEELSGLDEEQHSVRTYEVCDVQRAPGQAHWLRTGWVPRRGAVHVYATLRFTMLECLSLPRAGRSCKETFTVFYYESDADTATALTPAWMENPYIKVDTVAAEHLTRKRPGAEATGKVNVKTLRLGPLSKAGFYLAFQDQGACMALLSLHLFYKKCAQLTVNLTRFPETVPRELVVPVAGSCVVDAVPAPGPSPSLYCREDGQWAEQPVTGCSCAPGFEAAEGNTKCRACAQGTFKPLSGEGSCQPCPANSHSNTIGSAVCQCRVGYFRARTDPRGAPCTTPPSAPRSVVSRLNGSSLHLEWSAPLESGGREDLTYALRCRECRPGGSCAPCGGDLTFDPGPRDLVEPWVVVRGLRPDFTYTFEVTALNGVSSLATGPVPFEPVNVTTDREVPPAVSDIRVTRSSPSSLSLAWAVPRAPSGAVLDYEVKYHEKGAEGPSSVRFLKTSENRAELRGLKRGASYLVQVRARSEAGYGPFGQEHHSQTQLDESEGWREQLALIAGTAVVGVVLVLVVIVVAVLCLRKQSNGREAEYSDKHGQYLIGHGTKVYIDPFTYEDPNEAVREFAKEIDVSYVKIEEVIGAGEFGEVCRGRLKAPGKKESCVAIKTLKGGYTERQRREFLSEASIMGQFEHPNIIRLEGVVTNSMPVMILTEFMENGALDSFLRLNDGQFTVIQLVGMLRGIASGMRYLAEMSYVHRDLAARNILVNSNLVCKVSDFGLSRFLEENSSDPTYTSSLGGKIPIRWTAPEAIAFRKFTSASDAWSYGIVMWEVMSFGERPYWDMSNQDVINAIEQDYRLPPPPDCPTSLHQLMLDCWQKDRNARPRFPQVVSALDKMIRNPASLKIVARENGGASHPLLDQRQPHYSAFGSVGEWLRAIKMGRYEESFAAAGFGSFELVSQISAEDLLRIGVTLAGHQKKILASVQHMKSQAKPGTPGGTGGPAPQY
Chain of Tyrosine-protein kinase JAK2 (Homo sapiens) (O60674 whole entry): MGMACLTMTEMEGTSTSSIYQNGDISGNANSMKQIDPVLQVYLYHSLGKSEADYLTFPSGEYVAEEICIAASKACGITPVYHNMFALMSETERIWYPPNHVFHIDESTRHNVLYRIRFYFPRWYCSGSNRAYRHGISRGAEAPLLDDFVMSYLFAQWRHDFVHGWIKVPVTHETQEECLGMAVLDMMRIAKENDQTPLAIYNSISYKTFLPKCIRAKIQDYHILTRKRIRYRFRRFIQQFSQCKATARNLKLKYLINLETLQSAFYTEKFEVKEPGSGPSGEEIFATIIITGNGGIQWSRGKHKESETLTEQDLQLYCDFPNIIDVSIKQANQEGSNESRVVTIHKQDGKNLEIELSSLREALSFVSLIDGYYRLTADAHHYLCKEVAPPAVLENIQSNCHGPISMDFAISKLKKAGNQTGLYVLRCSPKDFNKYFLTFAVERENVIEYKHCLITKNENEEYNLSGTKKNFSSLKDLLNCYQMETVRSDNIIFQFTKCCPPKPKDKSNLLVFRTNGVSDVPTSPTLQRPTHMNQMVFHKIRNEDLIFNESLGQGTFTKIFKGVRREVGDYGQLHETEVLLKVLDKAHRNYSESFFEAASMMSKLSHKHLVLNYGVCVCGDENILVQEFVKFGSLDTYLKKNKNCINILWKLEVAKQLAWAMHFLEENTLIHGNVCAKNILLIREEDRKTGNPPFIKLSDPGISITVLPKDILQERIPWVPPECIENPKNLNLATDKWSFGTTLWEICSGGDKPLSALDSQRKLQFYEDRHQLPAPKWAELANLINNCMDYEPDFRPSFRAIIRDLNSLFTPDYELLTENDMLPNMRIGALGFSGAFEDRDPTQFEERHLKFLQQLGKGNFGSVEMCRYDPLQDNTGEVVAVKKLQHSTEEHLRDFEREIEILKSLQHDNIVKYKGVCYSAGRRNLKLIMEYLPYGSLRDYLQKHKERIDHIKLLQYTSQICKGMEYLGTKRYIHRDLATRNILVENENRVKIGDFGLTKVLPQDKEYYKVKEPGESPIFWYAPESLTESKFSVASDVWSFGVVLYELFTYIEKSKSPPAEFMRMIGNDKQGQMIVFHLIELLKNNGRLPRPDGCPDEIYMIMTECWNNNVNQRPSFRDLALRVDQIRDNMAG
Chain of Mitogen-activated protein kinase kinase kinase 9 (Homo sapiens) (P80192 whole entry, looked up): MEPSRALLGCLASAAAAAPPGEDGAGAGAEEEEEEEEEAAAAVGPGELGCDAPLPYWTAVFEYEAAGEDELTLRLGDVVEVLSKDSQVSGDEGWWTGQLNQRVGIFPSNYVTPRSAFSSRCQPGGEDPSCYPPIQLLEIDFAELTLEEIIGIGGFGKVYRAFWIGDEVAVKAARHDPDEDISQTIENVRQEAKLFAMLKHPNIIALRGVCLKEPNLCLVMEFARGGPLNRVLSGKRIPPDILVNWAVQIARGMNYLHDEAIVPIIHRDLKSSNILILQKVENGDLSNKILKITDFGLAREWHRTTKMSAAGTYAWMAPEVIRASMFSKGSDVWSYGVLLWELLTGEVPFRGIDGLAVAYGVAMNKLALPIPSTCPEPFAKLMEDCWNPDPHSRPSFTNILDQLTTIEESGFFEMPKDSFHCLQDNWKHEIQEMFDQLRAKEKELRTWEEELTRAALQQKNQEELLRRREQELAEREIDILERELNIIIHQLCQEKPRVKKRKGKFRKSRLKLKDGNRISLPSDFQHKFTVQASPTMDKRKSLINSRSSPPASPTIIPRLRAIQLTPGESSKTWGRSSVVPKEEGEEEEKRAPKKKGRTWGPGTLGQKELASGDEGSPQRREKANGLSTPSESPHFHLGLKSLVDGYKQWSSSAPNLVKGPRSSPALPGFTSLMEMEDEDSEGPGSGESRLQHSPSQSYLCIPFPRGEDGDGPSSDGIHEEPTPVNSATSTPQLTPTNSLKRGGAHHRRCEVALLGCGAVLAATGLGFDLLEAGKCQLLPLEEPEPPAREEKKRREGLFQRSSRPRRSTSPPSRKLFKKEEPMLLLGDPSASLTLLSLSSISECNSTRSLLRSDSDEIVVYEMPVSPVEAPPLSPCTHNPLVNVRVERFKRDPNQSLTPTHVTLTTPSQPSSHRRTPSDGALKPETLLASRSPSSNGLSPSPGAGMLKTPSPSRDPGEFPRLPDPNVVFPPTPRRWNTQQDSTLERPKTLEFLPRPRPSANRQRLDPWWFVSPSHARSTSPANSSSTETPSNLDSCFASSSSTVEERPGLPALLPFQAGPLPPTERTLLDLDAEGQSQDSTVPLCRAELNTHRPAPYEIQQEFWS
Chain of Focal adhesion kinase 1 (Homo sapiens) (Q05397 2-1052 limits assumed): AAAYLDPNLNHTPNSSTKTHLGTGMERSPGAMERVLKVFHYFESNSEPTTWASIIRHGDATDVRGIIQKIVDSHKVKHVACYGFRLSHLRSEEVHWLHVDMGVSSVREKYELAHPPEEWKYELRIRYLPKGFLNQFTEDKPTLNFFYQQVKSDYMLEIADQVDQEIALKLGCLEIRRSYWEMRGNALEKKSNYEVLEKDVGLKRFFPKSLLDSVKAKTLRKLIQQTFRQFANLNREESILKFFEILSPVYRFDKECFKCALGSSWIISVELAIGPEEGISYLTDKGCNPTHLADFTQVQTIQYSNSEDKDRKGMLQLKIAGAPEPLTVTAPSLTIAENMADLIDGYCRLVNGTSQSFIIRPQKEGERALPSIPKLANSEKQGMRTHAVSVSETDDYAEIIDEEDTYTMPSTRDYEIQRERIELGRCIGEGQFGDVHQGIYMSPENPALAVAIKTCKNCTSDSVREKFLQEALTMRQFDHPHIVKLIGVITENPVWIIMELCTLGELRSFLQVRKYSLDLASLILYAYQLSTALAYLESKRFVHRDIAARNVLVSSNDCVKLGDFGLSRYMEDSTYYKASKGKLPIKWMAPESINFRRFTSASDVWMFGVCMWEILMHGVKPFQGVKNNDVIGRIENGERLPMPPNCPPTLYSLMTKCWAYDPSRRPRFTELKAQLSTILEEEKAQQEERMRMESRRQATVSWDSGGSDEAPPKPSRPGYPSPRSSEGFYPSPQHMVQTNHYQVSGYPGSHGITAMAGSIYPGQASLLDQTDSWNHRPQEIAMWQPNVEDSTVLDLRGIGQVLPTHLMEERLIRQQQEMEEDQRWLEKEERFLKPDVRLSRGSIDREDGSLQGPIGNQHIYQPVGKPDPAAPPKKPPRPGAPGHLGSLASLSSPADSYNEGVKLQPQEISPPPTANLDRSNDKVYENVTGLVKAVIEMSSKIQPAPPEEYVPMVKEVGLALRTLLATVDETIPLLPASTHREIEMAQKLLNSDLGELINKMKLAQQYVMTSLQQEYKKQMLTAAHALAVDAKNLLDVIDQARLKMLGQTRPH
Chain of Aurora kinase C (Homo sapiens) (Q9UQB9 whole entry): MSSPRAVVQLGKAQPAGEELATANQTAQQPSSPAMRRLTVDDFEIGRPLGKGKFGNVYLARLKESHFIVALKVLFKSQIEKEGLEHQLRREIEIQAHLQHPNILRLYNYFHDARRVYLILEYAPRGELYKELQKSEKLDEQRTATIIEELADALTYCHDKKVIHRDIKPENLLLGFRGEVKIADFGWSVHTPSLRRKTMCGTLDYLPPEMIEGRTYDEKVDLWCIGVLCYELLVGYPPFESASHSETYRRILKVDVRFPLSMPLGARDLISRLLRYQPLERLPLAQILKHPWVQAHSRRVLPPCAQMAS

COc1ccc2c3ccnc(C(F)(F)F)c3n(CCCCN)c2c1
t1/2 [1]: 5.68 h | inhibition [2]: 0% | inhibition [3]: 4% | inhibition [4]: 5% | inhibition [5]: 12% | inhibition [6]: 0% | inhibition [7]: 0% | inhibition [8]: 5% | inhibition [9]: 0% | inhibition [10]: 3% | inhibition [11]: 11% | inhibition [12]: 10% | inhibition [13]: 0% | inhibition [14]: 4% | inhibition [15]: 4% | inhibition [16]: 9% | inhibition [17]: 44% | inhibition [18]: 0% | inhibition [19]: 15% | inhibition [20]: 16% | inhibition [21]: 1% | inhibition [22]: 14% | inhibition [23]: 14% | inhibition [24]: 39% | inhibition [25]: 93% | inhibition [26]: 27% | inhibition [27]: 73% | inhibition [28]: 99% | inhibition [29]: 41% | inhibition [30]: 3% | inhibition [31]: 49% | inhibition [32]: 53% | inhibition [33]: 8% | inhibition [34]: 20% | inhibition [35]: 0% | inhibition [36]: 0% | inhibition [37]: 9% | inhibition [38]: 0% | inhibition [39]: 6% | inhibition [40]: 80% | inhibition [41]: 64% | inhibition [42]: 41% | inhibition [43]: 68% | inhibition [44]: 28% | inhibition [45]: 0% | inhibition [46]: 6%
